# Assay results from the supplement of paper PMC10307832.
# Columns and labels:
# Test in all cases: relative viability (nuclei count vs DMSO), 5 days (fraction); higher = more cells survive
# [1] = compound: C[C@@H](Oc1cc(-c2cnn(C3CCNCC3)c2)cnc1N)c1c(Cl)ccc(F)c1Cl [Crizotinib] + CCNC(=O)c1noc(-c2cc(C(C)C)c(O)cc2O)c1-c1ccc(CN2CCOCC2)cc1 [Luminespib] (partner 0.01 µM)
# Summary of the method: (§1)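 Relative viability is defined as nuclei in treated wells over nuclei in vehicle wells. Duplicate plates were run and medians reported. Lung cancer cell lines in 1536-well plates were dosed by pin tool one day after seeding, with one drug or with a fixed anchor-drug dose plus five library-drug doses (not always all listed) in √10 steps, and nuclei were counted after 5 days.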
# [2] = compound: C[C@@H](Oc1cc(-c2cnn(C3CCNCC3)c2)cnc1N)c1c(Cl)ccc(F)c1Cl [Crizotinib] + Cc1nc(NC(=O)N2CCC[C@H]2C(N)=O)sc1-c1ccnc(C(C)(C)C(F)(F)F)c1 [Alpelisib] (partner 2 µM)
# Summary of the method: as §1
# [3] = compound: C[C@@H](Oc1cc(-c2cnn(C3CCNCC3)c2)cnc1N)c1c(Cl)ccc(F)c1Cl [Crizotinib] + Cc1nc(Nc2ncc(C(=O)Nc3c(C)cccc3Cl)s2)cc(N2CCN(CCO)CC2)n1 [Dasatinib] (partner 0.075 µM)
# Summary of the method: as §1
# [4] = compound: C[C@@H](Oc1cc(-c2cnn(C3CCNCC3)c2)cnc1N)c1c(Cl)ccc(F)c1Cl [Crizotinib] + Nc1nc2[nH]cc(CCc3ccc(C(=O)N[C@@H](CCC(=O)O)C(=O)O)cc3)c2c(=O)[nH]1 [Pemetrexed] (partner 0.2 µM)
# Summary of the method: as §1
Cell Line,relative viability ([1]; first compound 0.01 µM),relative viability ([1]; first compound 0.03162 µM),relative viability ([1]; first compound 0.1 µM),relative viability ([1]; first compound 0.3162 µM),relative viability ([1]; first compound 1 µM),relative viability ([2]; first compound 0.01 µM),relative viability ([2]; first compound 0.03162 µM),relative viability ([2]; first compound 0.1 µM),relative viability ([2]; first compound 0.3162 µM),relative viability ([3]; first compound 0.01 µM),relative viability ([3]; first compound 0.03162 µM),relative viability ([3]; first compound 0.1 µM),relative viability ([3]; first compound 0.3162 µM),relative viability ([3]; first compound 1 µM),relative viability ([4]; first compound 0.01 µM),relative viability ([4]; first compound 0.03162 µM),relative viability ([4]; first compound 0.1 µM),relative viability ([4]; first compound 0.3162 µM),relative viability ([4]; first compound 1 µM),relative viability ([2]; first compound 1 µM)
SK-LU-1,0.208,0.195,0.225,0.224,0.206,0.989,1.04,1.11,1.17,0.178,0.16,0.181,0.189,0.159,0.887,0.911,0.815,1.02,0.922,–
SK-MES-1,0.669,0.827,0.771,0.712,0.76,0.775,0.929,0.79,0.803,0.385,0.373,0.418,0.312,0.341,0.879,0.928,0.927,–,0.924,–
SW 1573,0.132,0.342,0.253,0.405,0.236,0.663,0.896,0.638,0.732,0.352,0.389,0.51,0.449,0.454,–,0.797,0.749,0.676,0.908,0.779
UMC-11,0.898,1.1,0.885,0.965,1.12,0.961,0.921,0.968,0.956,0.381,0.468,0.426,0.282,0.502,0.864,0.76,0.732,0.814,0.841,0.974
